ChEMBL document CHEMBL1201862, “PubChem BioAssay data set” (2004)
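Compound exposure: 48 hours, 5 concentrations, 96-well plates. GI50: concentration for 50% inhibition of growth.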 The source made the active and inactive calls. Cut-off read from the data, not from the text of the source: active = GI50 up to about 1.1 µM and inactive = higher. Non-standard residues stand in square brackets, D forms with d. Residues, ends and D or L forms follow the SMILES beside them. ξ: configuration not given here. Pentanoyl(2-O,4-OH,5-Cl) = O=C(O)C(O)CC(O)CCl; Ile(3ξ) = CCC(C)[C@H](N)C(=O)O; NMeV = CN[C@H](C(=O)O)C(C)C; NMeA = CN[C@@H](C)C(=O)O; βAla = NCCC(=O)O

What was measured:
Assay in all cases: NCI-60 cell line screen, 48 h
CAKI-1 = test system: CAKI-1
DLD-1 = test system: DLD-1
DMS-114 = test system: DMS-114
DMS-273 = test system: DMS-273
EKVX = test system: EKVX
HOP-18 = test system: HOP-18
KM-20L2 = test system: KM-20L2
MCF7 = test system: MCF7
NCI-H522 = test system: NCI-H522
OVCAR-8 = test system: OVCAR-8
SNB-78 = test system: SNB-78
ACHN = test system: ACHN
BT-549 = test system: BT-549
DU-145 = test system: DU-145
M14 = test system: M14
MDA-MB-435 = test system: MDA-MB-435
PC-3 = test system: PC-3
SR = test system: SR
786-0 = test system: 786-0
M19-MEL = test system: M19-MEL

Structure (SMILES) | GI50 (CAKI-1) | GI50 (DLD-1) | GI50 (DMS-114) | GI50 (DMS-273) | GI50 (EKVX) | GI50 (HOP-18) | GI50 (KM-20L2) | GI50 (MCF7) | GI50 (NCI-H522) | GI50 (OVCAR-8) | GI50 (SNB-78) | GI50 (ACHN) | GI50 (BT-549) | GI50 (DU-145) | GI50 (M14) | GI50 (MDA-MB-435) | GI50 (PC-3) | GI50 (SR) | GI50 (786-0) | GI50 (M19-MEL)
COc1ccc2[nH]c3c(C)c4ccncc4c(C)c3c2c1 | 0.601 µM (active) | 0.123 µM (active) | 0.446 µM (active) | 0.218 µM (active) | 1.01 µM (active) | 1.29 µM (inactive) | 0.169 µM (active) | 0.359 µM (active) | 0.681 µM (active) | 0.111 µM (active) | 2.69 µM (inactive) |  |  |  |  |  |  |  |  | 
CCC(C)[C@@H]1NC(=O)[C@@H]2CCCN2C(=O)C(CC(O)CCl)OC(=O)CCNC(=O)[C@H](C)N(C)C(=O)[C@H](C(C)C)N(C)C1=O (stereo partly drawn) (cyclo([Ile(3ξ)][NMeV][NMeA][βAla][Pentanoyl(2-O,4-OH,5-Cl)]P)) | > 100 µM (inactive) |  |  |  | > 100 µM (inactive) |  |  | > 39.8 µM (inactive) | 2.36 µM (inactive) | > 100 µM (inactive) |  | > 100 µM (inactive) | > 100 µM (inactive) | > 100 µM (inactive) | 0.46 µM (active) | > 100 µM (inactive) | 74.6 µM (inactive) | 0.361 µM (active) |  | 
CC1=NN(C(=O)c2ccccc2O)C(=O)/C1=C/c1c(O)ccc2ccccc12 | 1.32 µM (inactive) |  | 0.219 µM (active) |  | 0.713 µM (active) |  | 4.59 µM (inactive) | 3.31 µM (inactive) | 0.839 µM (active) | 1.01 µM (active) | 26.6 µM (inactive) | 0.955 µM (active) | 4.7 µM (inactive) | 0.607 µM (active) | 0.587 µM (active) | 4.94 µM (inactive) | 2.03 µM (inactive) | 0.364 µM (active) | 0.316 µM (active) | 0.46 µM (active)
CN(C)CCCNC(=O)N/N=C/c1ccccc1 |  | > 100 µM (inactive) | > 100 µM (inactive) | > 100 µM (inactive) |  | > 100 µM (inactive) |  |  | > 100 µM (inactive) | > 100 µM (inactive) | > 100 µM (inactive) | > 100 µM (inactive) |  |  |  |  |  |  |  | > 100 µM (inactive)
CN(C)c1ccc(C2CC(=O)CC(c3ccc(N(C)C)cc3)C23C(=O)NC(=O)NC3=O)cc1 (stereo not drawn) | > 25 µM (inactive) |  |  |  | > 25 µM (inactive) |  |  | > 25 µM (inactive) | 17.6 µM (inactive) | 14.4 µM (inactive) |  | > 25 µM (inactive) | 23 µM (inactive) | > 25 µM (inactive) | > 25 µM (inactive) | > 25 µM (inactive) | > 25 µM (inactive) | > 25 µM (inactive) | 12.4 µM (inactive) | 
N#Cc1c(NC(=S)NC(=O)c2ccccc2)nc2c(c1-c1ccccc1)CCCC2 | > 100 µM (inactive) |  |  |  |  |  |  | 58.9 µM (inactive) |  | 36.6 µM (inactive) |  |  | 30.5 µM (inactive) | > 100 µM (inactive) | > 100 µM (inactive) | > 100 µM (inactive) | > 100 µM (inactive) | > 100 µM (inactive) |  | 
CSc1nc(NC2OC(COC(C)=O)C(OC(C)=O)C(OC(C)=O)C2OC(C)=O)c2c(OC(C)=O)c(C)c(=O)oc2n1 (stereo not drawn) | > 100 µM (inactive) | > 100 µM (inactive) | > 100 µM (inactive) |  | > 100 µM (inactive) | > 100 µM (inactive) | > 100 µM (inactive) |  |  | > 100 µM (inactive) | > 100 µM (inactive) | > 100 µM (inactive) |  |  | > 100 µM (inactive) |  |  |  | > 100 µM (inactive) | > 100 µM (inactive)
COc1ccc(C2c3cc4c(cc3OC(NCCO)C2C)OCO4)cc1 (stereo not drawn) | 23.5 µM (inactive) |  |  |  | 32 µM (inactive) |  |  | 27.3 µM (inactive) | 16.6 µM (inactive) |  |  | 29.6 µM (inactive) | 16.7 µM (inactive) | 29.4 µM (inactive) | 26.4 µM (inactive) | 23.6 µM (inactive) | 23.4 µM (inactive) | 19 µM (inactive) |  | 
CSCCC(NC(=O)OCc1ccccc1)P(=O)(O)c1ccccc1 (stereo not drawn) | > 100 µM (inactive) |  |  |  |  |  |  | > 100 µM (inactive) | > 100 µM (inactive) | > 100 µM (inactive) |  | > 100 µM (inactive) |  | > 100 µM (inactive) | > 100 µM (inactive) | > 100 µM (inactive) | > 100 µM (inactive) | > 100 µM (inactive) |  | 
c1ccc2c(c1)NCc1cc3ccccc3nc1O2 | > 100 µM (inactive) | > 100 µM (inactive) | 99.5 µM (inactive) | > 100 µM (inactive) | > 100 µM (inactive) | > 100 µM (inactive) |  | 16 µM (inactive) | > 100 µM (inactive) | > 100 µM (inactive) | > 100 µM (inactive) |  |  |  |  |  |  |  |  | > 100 µM (inactive)
Oc1c(Br)ccc2cccnc12 | 5.94 µM (inactive) |  |  |  | 3.27 µM (inactive) |  |  | 0.443 µM (active) | 0.959 µM (active) | 2.25 µM (inactive) |  | 3.13 µM (inactive) | 7.48 µM (inactive) | 5.4 µM (inactive) |  | 7.5 µM (inactive) | 3.33 µM (inactive) | 0.944 µM (active) | 3.91 µM (inactive) | 
O=[N+]([O-])c1cccc2nccc(NCC(O)CO)c12 (stereo not drawn) | 16 µM (inactive) |  |  |  | 14.5 µM (inactive) |  |  | 13.9 µM (inactive) | 7.01 µM (inactive) | 11.6 µM (inactive) |  | 20.6 µM (inactive) | 14.2 µM (inactive) | 26.3 µM (inactive) | 17.4 µM (inactive) | 16.6 µM (inactive) | 16.5 µM (inactive) | 5.06 µM (inactive) | 18 µM (inactive) | 
Cc1c(Cl)c(=O)oc2cc(OCC(=O)c3ccccc3)ccc12 | > 100 µM (inactive) |  |  |  | > 100 µM (inactive) |  |  | > 100 µM (inactive) | > 100 µM (inactive) | > 100 µM (inactive) |  | > 100 µM (inactive) | > 100 µM (inactive) | > 100 µM (inactive) | > 100 µM (inactive) | > 100 µM (inactive) | > 100 µM (inactive) | 2.7 µM (inactive) |  | 
CCOP(=O)(CN=C(c1ccccc1)c1ccccc1)OCC | > 100 µM (inactive) |  |  |  |  |  |  | > 100 µM (inactive) | > 100 µM (inactive) | > 100 µM (inactive) |  | > 100 µM (inactive) |  | > 100 µM (inactive) | > 100 µM (inactive) | > 100 µM (inactive) | > 100 µM (inactive) | > 100 µM (inactive) |  | 
Cc1nn(C)c2c1C(=O)N(C)CC(=O)N2C | > 100 µM (inactive) |  |  |  | > 100 µM (inactive) |  |  | > 100 µM (inactive) | > 100 µM (inactive) | > 100 µM (inactive) |  | > 100 µM (inactive) | > 100 µM (inactive) | > 100 µM (inactive) | > 100 µM (inactive) | > 100 µM (inactive) | > 100 µM (inactive) | > 100 µM (inactive) | > 100 µM (inactive) | 
Nc1ccc(N(S(=O)(=O)c2ccccc2)S(=O)(=O)c2ccccc2)c(Cl)c1 | 47.3 µM (inactive) |  |  |  | 64.3 µM (inactive) |  |  | 39.3 µM (inactive) | 33.9 µM (inactive) | 70.8 µM (inactive) |  | 66.5 µM (inactive) | 56.5 µM (inactive) | 95.7 µM (inactive) | 77.6 µM (inactive) | 15.1 µM (inactive) | 35.6 µM (inactive) | 57.3 µM (inactive) | 81.1 µM (inactive) | 
CC(C)(C)/N=c1/n(C(C)(C)C)oc(=O)n1C(C)(C)C | > 100 µM (inactive) |  |  |  | > 100 µM (inactive) |  |  | > 100 µM (inactive) |  | > 100 µM (inactive) |  | > 100 µM (inactive) | > 100 µM (inactive) |  | > 100 µM (inactive) |  | > 100 µM (inactive) | > 100 µM (inactive) | > 100 µM (inactive) | 
Nc1ccccc1S(=O)(=O)c1ccccc1 |  | > 100 µM (inactive) | > 100 µM (inactive) | > 100 µM (inactive) | > 100 µM (inactive) | > 100 µM (inactive) | > 100 µM (inactive) |  |  | > 100 µM (inactive) |  | > 100 µM (inactive) |  |  | > 100 µM (inactive) |  |  | > 100 µM (inactive) |  | > 100 µM (inactive)
CC(C)CC(N)C(=O)NC(CNC(CCC(N)=O)C(=O)NC(CC(C)C)C(=O)NC(CC(C)C)C(=O)O)Cc1ccc2ccccc2c1 (stereo not drawn) | 9.31 µM (inactive) |  |  |  | > 10 µM (inactive) |  |  | > 10 µM (inactive) |  | > 10 µM (inactive) |  | > 10 µM (inactive) | > 10 µM (inactive) | > 10 µM (inactive) | > 10 µM (inactive) | > 10 µM (inactive) | > 10 µM (inactive) | > 10 µM (inactive) | > 10 µM (inactive) | 
C=CCC12CC(=O)C=C1CCC1(C2)OCCO1 (stereo not drawn) | > 100 µM (inactive) | > 100 µM (inactive) |  | > 100 µM (inactive) |  | > 100 µM (inactive) | > 100 µM (inactive) |  | > 100 µM (inactive) |  | > 100 µM (inactive) | > 100 µM (inactive) |  |  | > 100 µM (inactive) |  |  | > 100 µM (inactive) | > 100 µM (inactive) | > 100 µM (inactive)
Cc1ccc(S(=O)(=O)N(C=O)N=C2CCN(Cc3ccccc3)CC2)cc1 | > 100 µM (inactive) | > 100 µM (inactive) |  | > 100 µM (inactive) | > 100 µM (inactive) | > 100 µM (inactive) | > 100 µM (inactive) |  | > 100 µM (inactive) | > 100 µM (inactive) | > 100 µM (inactive) | > 100 µM (inactive) |  |  | > 100 µM (inactive) |  |  | > 100 µM (inactive) | > 100 µM (inactive) | > 100 µM (inactive)
O=C/C(=C1/C=Cc2cc([N+](=O)[O-])ccc2S1)c1ccccc1 | > 100 µM (inactive) |  |  |  | > 100 µM (inactive) |  |  | > 100 µM (inactive) | > 100 µM (inactive) |  |  | > 100 µM (inactive) |  | > 100 µM (inactive) | > 100 µM (inactive) | > 100 µM (inactive) | > 100 µM (inactive) | > 100 µM (inactive) | > 100 µM (inactive) | 
